Experimental data as given in the supplement of paper PMC10307832.

Tests used:
Assay in all cases: relative viability (nuclei count vs DMSO), 5 days (fraction); higher = more cells survive
[1] = compound: CC1=CC=C(C=C1)C(=O)CN2C3=C(CCCC3)SC2=N [Pifithrin_alpha] + Cc1cc(Nc2cc(N3CCN(C)CC3)nc(Sc3ccc(NC(=O)C4CC4)cc3)n2)n[nH]1 [Tozasertib] (partner 0.1 µM)
In short: (§1)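 Cells from lung cancer lines were seeded into 1536-well plates and, one day later, dosed by pin tool. Treatments were either a single drug or a fixed dose of an anchor drug with five library-drug doses (not always all listed) in √10 steps. After 5 days, nuclei were stained in a one-step fixation (final 0.05% Triton X-100, 1% formaldehyde, 1 ug/ml Hoechst) and counted on 4× images, and relative viability is the treated-to-vehicle nuclei ratio, as the median of duplicate plates.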

Axitinib + OSI-027 = compound: CNC(=O)c1ccccc1Sc1ccc2c(/C=C/c3ccccn3)n[nH]c2c1 [Axitinib] + COc1cccc2cc(-c3nc([C@H]4CC[C@H](C(=O)O)CC4)n4ncnc(N)c34)[nH]c12 [OSI-027] (partner 0.5 µM)
In short: as §1

Bemcentinib + Linsitinib = compound: Nc1nc(Nc2ccc3c(c2)CC[C@@H](N2CCCC2)CC3)nn1-c1cc2c(nn1)-c1ccccc1CCC2 [Bemcentinib] + C[C@]1(O)C[C@@H](c2nc(-c3ccc4ccc(-c5ccccc5)nc4c3)c3c(N)nccn32)C1 [Linsitinib] (partner 1 µM)
In short: as §1

Bemcentinib + Decitabine = compound: Nc1nc(Nc2ccc3c(c2)CC[C@@H](N2CCCC2)CC3)nn1-c1cc2c(nn1)-c1ccccc1CCC2 [Bemcentinib] + Nc1ncn([C@H]2C[C@H](O)[C@@H](CO)O2)c(=O)n1 [Decitabine] (partner 2 µM)
In short: as §1

| Cell Line | relative viability ([1]; first compound 1 µM) | relative viability ([1]; first compound 3.162 µM) | relative viability ([1]; first compound 10 µM) | relative viability ([1]; first compound 100 µM) | relative viability (Axitinib + OSI-027; first compound 0.005 µM) | relative viability (Axitinib + OSI-027; first compound 0.01581 µM) | relative viability (Axitinib + OSI-027; first compound 0.05 µM) | relative viability (Axitinib + OSI-027; first compound 0.1581 µM) | relative viability (Axitinib + OSI-027; first compound 0.5 µM) | relative viability (Bemcentinib + Linsitinib; first compound 0.04 µM) | relative viability (Bemcentinib + Linsitinib; first compound 0.1265 µM) | relative viability (Bemcentinib + Linsitinib; first compound 0.4 µM) | relative viability (Bemcentinib + Linsitinib; first compound 1.265 µM) | relative viability (Bemcentinib + Linsitinib; first compound 4 µM) | relative viability (Bemcentinib + Decitabine; first compound 0.04 µM) | relative viability (Bemcentinib + Decitabine; first compound 0.1265 µM) | relative viability (Bemcentinib + Decitabine; first compound 0.4 µM) | relative viability (Bemcentinib + Decitabine; first compound 1.265 µM) | relative viability (Bemcentinib + Decitabine; first compound 4 µM) | relative viability ([1]; first compound 31.62 µM) |
| --- | --- | --- | --- | --- | --- | --- | --- | --- | --- | --- | --- | --- | --- | --- | --- | --- | --- | --- | --- | --- |
| NCI-H23 | 0.304 | 0.299 | 0.316 | 0.258 | 0.66 | 0.568 | 0.617 | 0.652 | 0.699 | 0.576 | 0.692 | 0.554 | 0.72 | 0.568 | 0.305 | 0.302 | 0.297 | 0.31 | 0.328 | – |
| PC-14 | – | 0.576 | 0.551 | 0.291 | 0.916 | 0.717 | 0.975 | 0.82 | 1.41 | 0.982 | 1.02 | 1.06 | 1.07 | 1.08 | 0.209 | 0.213 | 0.204 | 0.176 | 0.197 | 0.396 |
| H3255 | 0.642 | 0.896 | 0.574 | 0.708 | 0.651 | 0.512 | 0.612 | 0.599 | 0.544 | 0.89 | 1.22 | 1.04 | 1.02 | 0.888 | – | 0.574 | 0.681 | 0.648 | 0.68 | 0.572 |
| NCI-H3122 | 0.438 | 0.325 | 0.375 | 0.44 | 0.959 | 0.946 | 1.01 | 0.709 | 1.02 | 0.949 | 1.06 | 1.02 | 1.08 | 1 | 0.429 | 0.385 | 0.456 | 0.449 | 0.491 | – |
| NCI-H2009 | 0.822 | 0.755 | 0.693 | 0.495 | 0.699 | 0.684 | 0.646 | 0.697 | 0.887 | 1.21 | 1.25 | 1.14 | 1.17 | 1.21 | 0.404 | 0.353 | 0.492 | 0.399 | 0.434 | 0.413 |
| HCC-827 | 0.422 | 0.522 | 0.381 | 0.353 | 0.822 | 0.745 | 0.826 | 0.759 | 0.933 | 0.952 | 0.992 | 0.936 | 0.947 | 0.988 | 0.34 | 0.347 | 0.316 | 0.292 | 0.332 | 0.337 |
| LXF-289 | 0.209 | 0.172 | 0.174 | 0.14 | 0.76 | 0.727 | 0.785 | 0.763 | 0.877 | 0.955 | 1.06 | 0.972 | 0.991 | 0.995 | 0.431 | 0.323 | 0.417 | 0.398 | 0.364 | 0.147 |
| NCI-H596 | 0.79 | 0.871 | 0.977 | 0.915 | 0.893 | 0.649 | 0.855 | 0.797 | 0.556 | 1.03 | 1.03 | 1.03 | 1.17 | 1.06 | 1 | 1.04 | 1.09 | 1.1 | 1.08 | 0.705 |
